pIC50: −log10 of the molar value.
These molecules were tested against human NaV 1.8 (Homo sapiens, UniProt Q9Y5Y9) (assay: E-VIPR assay detecting and measuring NaV inhibition properties). Conditions: HEK cells expressing a truncated form of human NaV 1.8; electrical stimulation, membrane potential FRET dyes.
Assay type: cell-based
Method in brief: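 HEK cells expressing truncated full-activity NaV 1.8, co-transduced with KIR2.1 BacMam, seeded 16-20 h before assay. Electrical stimulation with FRET membrane-potential dyes (CC2-DMPE/DiSBAC6(3)) in HEPES-buffered bath solutions; 25% human serum final.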

Sequence of human NaV 1.8 (Q9Y5Y9 126-1722 limits assumed): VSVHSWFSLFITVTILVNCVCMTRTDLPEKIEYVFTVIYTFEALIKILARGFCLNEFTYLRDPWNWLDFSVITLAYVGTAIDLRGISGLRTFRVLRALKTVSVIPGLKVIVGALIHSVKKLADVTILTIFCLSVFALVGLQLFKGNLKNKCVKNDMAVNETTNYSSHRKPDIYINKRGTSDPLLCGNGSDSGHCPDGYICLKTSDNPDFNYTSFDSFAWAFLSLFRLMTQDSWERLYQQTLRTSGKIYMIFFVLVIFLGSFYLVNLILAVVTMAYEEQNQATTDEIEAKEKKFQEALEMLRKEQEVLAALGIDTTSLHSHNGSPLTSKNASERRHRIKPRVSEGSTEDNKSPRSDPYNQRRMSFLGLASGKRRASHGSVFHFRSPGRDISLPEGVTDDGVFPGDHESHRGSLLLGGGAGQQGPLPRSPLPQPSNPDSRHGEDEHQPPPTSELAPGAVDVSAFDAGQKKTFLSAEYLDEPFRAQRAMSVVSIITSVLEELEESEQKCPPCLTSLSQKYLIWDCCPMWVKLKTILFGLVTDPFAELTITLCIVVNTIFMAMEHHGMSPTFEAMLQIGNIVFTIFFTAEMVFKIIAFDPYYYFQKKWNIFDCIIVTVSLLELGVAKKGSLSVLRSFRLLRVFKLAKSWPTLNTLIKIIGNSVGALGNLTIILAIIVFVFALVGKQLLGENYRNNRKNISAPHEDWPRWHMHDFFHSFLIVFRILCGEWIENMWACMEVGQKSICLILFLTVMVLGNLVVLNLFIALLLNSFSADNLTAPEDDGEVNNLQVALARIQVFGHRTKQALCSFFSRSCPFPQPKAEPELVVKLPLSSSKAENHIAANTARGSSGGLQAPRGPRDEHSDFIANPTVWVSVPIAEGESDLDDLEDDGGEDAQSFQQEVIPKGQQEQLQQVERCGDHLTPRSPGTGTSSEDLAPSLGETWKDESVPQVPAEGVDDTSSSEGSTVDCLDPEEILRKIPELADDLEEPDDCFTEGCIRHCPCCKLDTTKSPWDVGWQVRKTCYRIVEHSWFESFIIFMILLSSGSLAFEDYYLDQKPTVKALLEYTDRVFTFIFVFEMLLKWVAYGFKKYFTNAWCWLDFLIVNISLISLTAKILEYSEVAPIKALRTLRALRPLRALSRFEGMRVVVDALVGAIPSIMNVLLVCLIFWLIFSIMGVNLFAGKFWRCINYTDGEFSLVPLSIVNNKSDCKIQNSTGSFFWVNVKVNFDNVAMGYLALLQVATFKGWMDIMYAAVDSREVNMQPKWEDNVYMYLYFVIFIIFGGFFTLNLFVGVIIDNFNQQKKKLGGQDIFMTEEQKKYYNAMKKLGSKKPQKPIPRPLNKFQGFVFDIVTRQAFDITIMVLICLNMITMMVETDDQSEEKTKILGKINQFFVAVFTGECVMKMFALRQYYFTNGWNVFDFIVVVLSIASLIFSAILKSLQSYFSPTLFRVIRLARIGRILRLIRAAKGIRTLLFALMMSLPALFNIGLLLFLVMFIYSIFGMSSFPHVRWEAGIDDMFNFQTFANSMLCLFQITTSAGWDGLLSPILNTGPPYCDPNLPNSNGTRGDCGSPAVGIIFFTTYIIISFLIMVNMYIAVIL

`C[C@H]1[C@@H](c2ccc(F)c(F)c2OCCF)[C@H](C(=O)Nc2ccc([C@@H](O)CO)nc2)O[C@@]1(C)C(F)(F)F` [Compound 37, (2R,3S,4S,5R)-3-(3,4-difluoro-2-(2-fluoroethoxy)phenyl)-N-(6-((R)-1,2-dihydroxyethyl)pyridin-3-yl)-4,5-dimethyl-5-(trifluoromethyl)tetrahydrofuran-2-carboxamide] was tested. Which pIC50 did it give?
Its pIC50 is over 8.00.

With `COc1c([C@H]2[C@H](C(=O)Nc3ccc(CO)nc3)O[C@@](C)(C(F)(F)F)[C@H]2C)ccc(OC(F)F)c1F` [Compound 18, (2R,3S,4S,5R)-3-(4-(difluoromethoxy)-3-fluoro-2-methoxyphenyl)-N-(6-(hydroxymethyl)pyridin-3-yl)-4,5-dimethyl-5-(trifluoromethyl)tetrahydrofuran-2-carboxamide] as the molecule, how does the pIC50 read?
The pIC50 was 7.00 to 8.00.

`COc1c([C@@H]2C[C@](C)(C(F)(F)F)O[C@H]2C(=O)Nc2ccc([C@@H](O)CO)nc2)ccc(F)c1F` (relative stereo) [Compound 24, rel-(2R,3S,5R)-3-(3,4-difluoro-2-methoxyphenyl)-N-(6-((R*)-1,2-dihydroxyethyl)pyridin-3-yl)-5-methyl-5-(trifluoromethyl)tetrahydrofuran-2-carboxamide] was tested. Which pIC50 did it give?
Its pIC50 is 6.00 to 7.00.

With `COc1c(C2C(C(=O)Nc3ccc(C(O)CO)nc3)OC(C)(C(F)(F)F)C2C)ccc(F)c1C(F)F` (single isomer, unassigned) [Compound 50] as the molecule, how does the pIC50 read?
Its pIC50 is at most 6.00.

How did the pIC50 turn out when `C[C@]1(C(F)(F)F)C[C@@H](c2ccc(OC(F)(F)F)cc2Cl)[C@H](C(=O)Nc2ccc([C@@H](O)CO)nc2)O1` (single isomer, unassigned) [Compound 62, rel-(2R,3S,5R)-3-(2-chloro-4-(trifluoromethoxy)phenyl)-N-(6-((R*)-1,2-dihydroxyethyl)pyridin-3-yl)-5-methyl-5-(trifluoromethyl)tetrahydrofuran-2-carboxamide] was run?
The pIC50 was 6.00 to 7.00.

How did the pIC50 turn out when `COc1c([C@H]2C[C@@](C)(C(F)(F)F)O[C@@H]2C(=O)Nc2ccc([C@@H](O)CO)nc2)ccc(F)c1F` (relative stereo) [Compound 25, rel-(2S,3R,5S)-3-(3,4-difluoro-2-methoxyphenyl)-N-(6-((R*)-1,2-dihydroxyethyl)pyridin-3-yl)-5-methyl-5-(trifluoromethyl)tetrahydrofuran-2-carboxamide] was run?
Its pIC50 is at most 6.00.

With `Cc1c([C@@H]2[C@@H](C(=O)Nc3ccc([C@@H](O)CO)nc3)O[C@](C)(C(F)(F)F)[C@@H]2C)ccc(F)c1F` (single isomer, unassigned) [Compound 68, rel-(2S,3R,4R,5S)-3-(3,4-difluoro-2-methylphenyl)-N-(6-((R*)-1,2-dihydroxyethyl)pyridin-3-yl)-4,5-dimethyl-5-(trifluoromethyl)tetrahydrofuran-2-carboxamide] as the molecule, how does the pIC50 read?
Its pIC50 is at most 6.00.

How did the pIC50 turn out when `COc1c(C2C(C(=O)Nc3cnc(CO)nc3)OC(C)(C(F)(F)F)C2C)ccc(F)c1C(F)F` (single isomer, unassigned) [Compound 54] was run?
The pIC50 was over 8.00.

With `COc1c([C@@H]2C[C@](C)(C(F)(F)F)O[C@H]2C(=O)Nc2cnc(C(O)CO)nc2)ccc(F)c1F` (single isomer, unassigned) [Compound 29] as the molecule, how does the pIC50 read?
The pIC50 was 6.00 to 7.00.

`COc1c(C2C(C(=O)Nc3ccc(C(O)CO)nc3)OC(C)(C(F)(F)F)C2C)ccc(F)c1C(F)F` (single isomer, unassigned) [Compound 51] was tested. Which pIC50 did it give?
Its pIC50 is over 8.00.

`CCOc1c([C@H]2[C@H](C(=O)Nc3ccc([C@@H](O)CO)nc3)O[C@@](C)(C(F)(F)F)[C@H]2C)ccc(F)c1F` [Compound 7, (2R,3S,4S,5R)-N-(6-((R)-1,2-dihydroxyethyl)pyridin-3-yl)-3-(2-ethoxy-3,4-difluorophenyl)-4,5-dimethyl-5-(trifluoromethyl)tetrahydrofuran-2-carboxamide] was tested. Which pIC50 did it give?
Its pIC50 is over 8.00.

`COc1c([C@H]2[C@H](C(=O)Nc3ccc([C@H](O)CO)nc3)O[C@@](C)(C(F)(F)F)[C@H]2C)ccc(F)c1C` (single isomer, unassigned) [Compound 45, rel-(2R,3S,4S,5R)-N-(6-((S*)-1,2-dihydroxyethyl)pyridin-3-yl)-3-(4-fluoro-2-methoxy-3-methylphenyl)-4,5-dimethyl-5-(trifluoromethyl)tetrahydrofuran-2-carboxamide] was tested. Which pIC50 did it give?
The pIC50 was 7.00 to 8.00.

With `COc1c(C2C(C(=O)Nc3cnc(C(O)CO)nc3)OC(C)(C(F)(F)F)C2C)ccc(F)c1F` (single isomer, unassigned) [Compound 11] as the molecule, how does the pIC50 read?
Its pIC50 is over 8.00.

How did the pIC50 turn out when `COCCC(O)c1ccc(NC(=O)[C@@H]2O[C@@](C)(C(F)(F)F)[C@@H](C)[C@H]2c2ccc(F)c(F)c2OC)cn1` (single isomer, unassigned) [Compound 23, rel-(2R*,3S*,4S*,5R*)-3-(3,4-difluoro-2-methoxyphenyl)-N-(6-(1-hydroxy-3-methoxypropyl)pyridin-3-yl)-4,5-dimethyl-5-(trifluoromethyl)tetrahydrofuran-2-carboxamide] was run?
Its pIC50 is 6.00 to 7.00.

How did the pIC50 turn out when `COc1c([C@@H]2[C@@H](C(=O)Nc3ccc([C@@H](O)CO)nc3)O[C@](C)(C(F)(F)F)[C@@H]2C)ccc(F)c1C` (single isomer, unassigned) [Compound 46, rel-(2S,3R,4R,5S)-N-(6-((R*)-1,2-dihydroxyethyl)pyridin-3-yl)-3-(4-fluoro-2-methoxy-3-methylphenyl)-4,5-dimethyl-5-(trifluoromethyl)tetrahydrofuran-2-carboxamide] was run?
The pIC50 was at most 6.00.

`COCC(O)c1ccc(NC(=O)[C@@H]2O[C@@](C)(C(F)(F)F)[C@@H](C)[C@H]2c2ccc(F)c(F)c2OC)cn1` (single isomer, unassigned) [Compound 20, rel-(2R*,3S*,4S*,5R*)-3-(3,4-difluoro-2-methoxyphenyl)-N-(6-(1-hydroxy-2-methoxyethyl)pyridin-3-yl)-4,5-dimethyl-5-(trifluoromethyl)tetrahydrofuran-2-carboxamide] was tested. Which pIC50 did it give?
The pIC50 was 7.00 to 8.00.

`COc1c([C@H]2[C@H](C(=O)Nc3ccc([C@@H](C)O)nc3)O[C@@](C)(C(F)(F)F)[C@H]2C)ccc(F)c1F` [Compound 84, (2R,3S,4S,5R)-3-(3,4-difluoro-2-methoxyphenyl)-N-(6-((R)-1-hydroxyethyl)pyridin-3-yl)-4,5-dimethyl-5-(trifluoromethyl)tetrahydrofuran-2-carboxamide] was tested. Which pIC50 did it give?
Its pIC50 is over 8.00.

With `COc1c(C2C(C(=O)Nc3ccc(CO)nc3)OC(C)(C(F)(F)F)C2C)ccc(F)c1C(F)F` (single isomer, unassigned) [Compound 52] as the molecule, how does the pIC50 read?
The pIC50 was at most 6.00.

How did the pIC50 turn out when `Cc1c([C@@H]2[C@@H](C)[C@@](C)(C(F)(F)F)O[C@H]2C(=O)Nc2ccc(CO)nc2)ccc(F)c1F` (single isomer, unassigned) [Compound 77] was run?
The pIC50 was at most 6.00.

How did the pIC50 turn out when `COc1c([C@H]2[C@H](C(=O)Nc3cnc(CO)c(F)c3)O[C@@](C)(C(F)(F)F)[C@H]2C)ccc(F)c1F` [Compound 83, (2R,3S,4S,5R)-3-(3,4-difluoro-2-methoxyphenyl)-N-(5-fluoro-6-(hydroxymethyl)pyridin-3-yl)-4,5-dimethyl-5-(trifluoromethyl)tetrahydrofuran-2-carboxamide] was run?
The pIC50 was over 8.00.

`COc1c([C@H]2C[C@@](C)(C(F)(F)F)O[C@@H]2C(=O)Nc2cnc(C(O)CO)nc2)ccc(F)c1F` (single isomer, unassigned) [Compound 28] was tested. Which pIC50 did it give?
Its pIC50 is at most 6.00.

`CCOc1c([C@H]2[C@H](C(=O)Nc3ccc([C@@H](O)CO)nc3)O[C@@](C)(C(F)(F)F)[C@H]2C)ccc(F)c1C` (single isomer, unassigned) [Compound 40, rel-(2R,3S,4S,5R)—N-(6-((R*)-1,2-dihydroxyethyl)pyridin-3-yl)-3-(2-ethoxy-4-fluoro-3-methylphenyl)-4,5-dimethyl-5-(trifluoromethyl)tetrahydrofuran-2-carboxamide] was tested. Which pIC50 did it give?
The pIC50 was over 8.00.

How did the pIC50 turn out when `Cc1c([C@H]2[C@H](C(=O)Nc3ccc(CO)nc3)O[C@@](C)(C(F)(F)F)[C@H]2C)ccc(F)c1F` (single isomer, unassigned) [Compound 80] was run?
Its pIC50 is over 8.00.

How did the pIC50 turn out when `COc1c([C@H]2[C@H](C(=O)Nc3cnc(C(O)CO)nc3)O[C@@](C)(C(F)(F)F)[C@H]2C)cccc1C(F)(F)F` (single isomer, unassigned) [Compound 73] was run?
Its pIC50 is 7.00 to 8.00.

Reference: US11827627B2, “N-(hydroxyalkyl (hetero)aryl) tetrahydrofuran carboxamides as modulators of sodium channels” (VERTEX PHARMACEUTICALS INCORPORATED, priority 2021, dated 2023)
